# In patent US20030161854A1, “Synergistic formulations” (priority 2000, published 2003):
# Test system: 1st instar larvae of Lucilia cuprina
# Experiment: In-vitro investigation for possible potentiation between spinosad and ivermectin in sheep blowfly larvae (treated chromatography papers, fractions of LC90)
# Format: in vivo
# Details: 48 hours
# Experimental: Forty to 50 newly hatched 1st instar larvae of Lucilia cuprina were washed with sheep serum onto chromatography papers treated with serial dilutions of ivermectin or spinosad as set out below. After 48 hours numbers of live and dead larvae were counted. The LC90 was calculated for spinosad and ivermectin. Larvae were exposed to that concentration of spinosad or ivermectin and ½, ¼ and ⅛ of the LC90. In addition larvae were exposed to 1:1, 1:4, 4:1, 9:1 and 1:9 combinations of each chemical with each concentration of chemical being a fraction of the LC90.
# There were 19 treatment groups in the study (plus an untreated control group):
# D 12-14: Four:one rates of Ivermectin:Spinosad—(0.8×, 0.2×), (0.4×, 0.1×) and (0.2×, 0.05×)
# E 15-17: Four:one rates of Spinosad:lvermectin—(0.8×, 0.2×), (0.4×, 0.1×) and (0.2×, 0.05×)
# Each group was tested on 4 replicates of 50 flies and the number of dead flies per replicate was recorded.
# The method of generalized linear models for overdispersed binomial data using the logistic link function was used for an analysis of the 19 treatment groups. The analysis estimated dose-response lines (on the logarithmic dose scale) for each chemical or combination. The lines for each separate chemical were used to predict the efficacy (on the logistic scale) of the combinations assuming independent action, i.e. with no synergism. These were compared with the efficacy observed or predicted from the dose-response lines for the combinations.
Substance,Mean efficacy (Dose-response) % (0.125x LC90),Mean efficacy (Dose-response) Logit (0.125x LC90),Mean efficacy (Sample estimate) % (0.125x LC90),Mean efficacy (Sample estimate) Logit (0.125x LC90),Mean efficacy (Dose-response) % (0.25x LC90),Mean efficacy (Dose-response) Logit (0.25x LC90),Mean efficacy (Sample estimate) % (0.25x LC90),Mean efficacy (Sample estimate) Logit (0.25x LC90),Mean efficacy (Dose-response) % (0.5x LC90),Mean efficacy (Dose-response) Logit (0.5x LC90),Mean efficacy (Sample estimate) % (0.5x LC90),Mean efficacy (Sample estimate) Logit (0.5x LC90),Mean efficacy (Dose-response) % (1.0x LC90),Mean efficacy (Dose-response) Logit (1.0x LC90),Mean efficacy (Sample estimate) % (1.0x LC90),Mean efficacy (Sample estimate) Logit (1.0x LC90)
ivermectin,1.6%,−4.14 ± 0.48,3.0%,−3.48 ± 0.64,13.2%,−1.88 ± 0.26,11.0%,−2.09 ± 0.35,59.4%,0.38 ± 0.18,59.5%,0.38 ± 0.22,93.3%,2.64 ± 0.34,94.0%,2.75 ± 0.46
spinosad,9.8%,−2.21 ± 0.28,16.0%,−1.66 ± 0.30,30.7%,−0.81 ± 0.17,22.0%,−1.27 ± 0.27,64.1%,0.58 ± 0.16,63.0%,0.53 ± 0.23,87.9%,1.98 ± 0.27,91.5%,2.38 ± 0.39
